# Measurements published in the supplement of paper PMC10307832.
# Tests used:
# Assay in all cases: relative viability (nuclei count vs DMSO), 5 days (fraction); higher = more cells survive
# IU1-47 + Olaparib = compound: CC1=CC(=C(N1C2=CC=C(C=C2)Cl)C)C(=O)CN3CCCCC3 [IU1-47] + O=C(c1cc(Cc2n[nH]c(=O)c3ccccc23)ccc1F)N1CCN(C(=O)C2CC2)CC1 [Olaparib] (partner 8 µM)
# Procedure, shortened: (§1)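 Cells from lung cancer lines were seeded into 1536-well plates and, one day later, dosed by pin tool. Treatments were either a single drug or a fixed dose of an anchor drug with five library-drug doses (not always all listed) in √10 steps. After 5 days, nuclei were stained in a one-step fixation (final 0.05% Triton X-100, 1% formaldehyde, 1 ug/ml Hoechst) and counted on 4× images, and relative viability is the treated-to-vehicle nuclei ratio, as the median of duplicate plates.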
# FG-4592 + Pictilisib = compound: Cc1nc(C(=O)NCC(=O)O)c(O)c2ccc(Oc3ccccc3)cc12 [FG-4592] + CS(=O)(=O)N1CCN(Cc2cc3nc(-c4cccc5[nH]ncc45)nc(N4CCOCC4)c3s2)CC1 [Pictilisib] (partner 1 µM)
# Procedure, shortened: as §1
# FG-4592 + Vorinostat = compound: Cc1nc(C(=O)NCC(=O)O)c(O)c2ccc(Oc3ccccc3)cc12 [FG-4592] + O=C(CCCCCCC(=O)Nc1ccccc1)NO [Vorinostat] (partner 1 µM)
# Procedure, shortened: as §1
# IU1-47 + Pemetrexed = compound: CC1=CC(=C(N1C2=CC=C(C=C2)Cl)C)C(=O)CN3CCCCC3 [IU1-47] + Nc1nc2[nH]cc(CCc3ccc(C(=O)N[C@@H](CCC(=O)O)C(=O)O)cc3)c2c(=O)[nH]1 [Pemetrexed] (partner 0.2 µM)
# Procedure, shortened: as §1
Cell Line,relative viability (IU1-47 + Olaparib; first compound 0.08 µM),relative viability (IU1-47 + Olaparib; first compound 0.253 µM),relative viability (IU1-47 + Olaparib; first compound 0.8 µM),relative viability (IU1-47 + Olaparib; first compound 2.53 µM),relative viability (IU1-47 + Olaparib; first compound 8 µM),relative viability (FG-4592 + Pictilisib; first compound 0.08 µM),relative viability (FG-4592 + Pictilisib; first compound 0.253 µM),relative viability (FG-4592 + Pictilisib; first compound 0.8 µM),relative viability (FG-4592 + Pictilisib; first compound 2.53 µM),relative viability (FG-4592 + Pictilisib; first compound 8 µM),relative viability (FG-4592 + Vorinostat; first compound 0.08 µM),relative viability (FG-4592 + Vorinostat; first compound 0.253 µM),relative viability (FG-4592 + Vorinostat; first compound 0.8 µM),relative viability (FG-4592 + Vorinostat; first compound 2.53 µM),relative viability (FG-4592 + Vorinostat; first compound 8 µM),relative viability (IU1-47 + Pemetrexed; first compound 0.08 µM),relative viability (IU1-47 + Pemetrexed; first compound 0.253 µM),relative viability (IU1-47 + Pemetrexed; first compound 0.8 µM),relative viability (IU1-47 + Pemetrexed; first compound 2.53 µM),relative viability (IU1-47 + Pemetrexed; first compound 8 µM)
LXF-289,1.08,1.15,1.09,0.993,0.862,0.776,0.696,0.822,0.708,0.769,0.776,0.742,0.857,0.736,0.797,0.888,0.886,0.851,0.945,0.856
NCI-H23,0.288,–,0.281,0.385,0.257,0.365,0.433,0.486,0.449,0.398,0.484,0.451,0.415,0.507,0.634,0.608,–,0.59,0.708,0.692
NCI-H322M,0.838,0.838,0.813,0.845,0.757,0.379,0.481,0.481,0.512,0.583,–,0.823,0.772,0.898,0.822,0.662,0.648,0.829,0.582,0.607
NCI-H358,0.704,0.784,0.55,0.705,0.436,0.323,0.344,0.289,0.292,0.326,0.61,0.567,0.745,0.88,0.716,0.156,0.169,0.172,0.184,0.165
NCI-H441,0.61,0.591,0.511,0.543,0.539,0.585,0.524,0.509,0.483,0.464,0.692,0.809,0.855,0.694,0.696,0.255,0.273,0.278,0.306,0.265
NCI-H460,0.545,0.407,0.501,0.398,0.35,0.236,0.367,0.314,0.466,0.381,0.707,0.691,0.771,0.748,0.755,0.0569,0.0572,0.0551,0.0515,0.0695
NCI-H520,0.32,0.391,0.269,0.349,0.309,0.269,0.293,0.225,0.291,0.258,0.693,0.709,0.635,0.702,0.673,0.548,0.711,0.831,0.847,0.577
NCI-H596,0.676,–,0.754,0.718,0.632,0.337,0.359,–,0.377,0.433,0.441,0.507,–,0.637,0.584,0.491,–,0.494,0.508,0.446
NCI-H647,0.661,0.755,0.556,0.783,0.333,–,0.395,–,0.452,0.53,0.35,0.366,0.551,0.486,0.237,0.155,0.189,0.182,0.166,0.159
NCI-H650,0.447,0.426,0.378,0.4,0.413,0.879,0.916,0.739,0.801,0.872,0.352,0.574,0.384,0.339,0.365,1.01,1.1,0.965,0.878,1
NCI-H661,0.798,0.735,0.807,0.801,0.589,0.29,–,0.431,0.473,0.371,0.778,0.827,0.832,0.755,0.839,0.925,0.961,0.977,0.925,0.947
NCI-H838,0.809,0.799,0.774,0.911,0.58,0.481,0.396,0.363,0.494,0.433,0.742,0.729,0.696,0.839,0.705,0.241,0.233,0.259,0.274,0.246
NCI-H1355,0.781,0.826,0.751,–,0.781,0.389,0.393,–,0.379,0.366,0.553,0.632,–,0.596,0.644,1.06,1.08,1.12,–,1.07
NCI-H1395,0.46,0.432,0.44,0.452,0.412,0.747,0.622,–,0.776,0.531,0.729,0.771,0.493,0.675,0.623,0.888,0.853,0.747,0.508,0.738
NCI-H1437,0.623,0.615,0.618,0.633,0.549,0.447,0.437,0.337,0.37,0.269,0.751,0.786,0.912,0.894,0.722,0.336,0.336,0.314,0.308,0.311
NCI-H1650,0.756,0.797,0.736,0.968,0.797,0.428,0.549,0.44,0.586,0.617,0.762,0.53,0.502,0.55,0.465,0.419,0.338,0.335,0.36,0.294
NCI-H1651,0.155,0.162,0.17,0.183,0.185,0.541,0.575,0.534,0.635,0.454,0.597,0.596,0.546,0.469,0.538,0.587,0.559,0.616,0.311,0.451

Cell Line,relative viability (IU1-47 + Olaparib; first compound 0.08 µM),relative viability (IU1-47 + Olaparib; first compound 0.253 µM),relative viability (IU1-47 + Olaparib; first compound 0.8 µM),relative viability (IU1-47 + Olaparib; first compound 2.53 µM),relative viability (IU1-47 + Olaparib; first compound 8 µM),relative viability (FG-4592 + Pictilisib; first compound 0.08 µM),relative viability (FG-4592 + Pictilisib; first compound 0.253 µM),relative viability (FG-4592 + Pictilisib; first compound 0.8 µM),relative viability (FG-4592 + Pictilisib; first compound 2.53 µM),relative viability (FG-4592 + Pictilisib; first compound 8 µM),relative viability (FG-4592 + Vorinostat; first compound 0.08 µM),relative viability (FG-4592 + Vorinostat; first compound 0.253 µM),relative viability (FG-4592 + Vorinostat; first compound 0.8 µM),relative viability (FG-4592 + Vorinostat; first compound 2.53 µM),relative viability (FG-4592 + Vorinostat; first compound 8 µM),relative viability (IU1-47 + Pemetrexed; first compound 0.08 µM),relative viability (IU1-47 + Pemetrexed; first compound 0.253 µM),relative viability (IU1-47 + Pemetrexed; first compound 0.8 µM),relative viability (IU1-47 + Pemetrexed; first compound 2.53 µM),relative viability (IU1-47 + Pemetrexed; first compound 8 µM)
NCI-H1666,0.757,0.681,0.79,0.713,0.759,0.41,0.341,0.42,0.486,0.321,1.02,0.932,0.954,1.08,1.03,0.894,0.839,0.888,0.873,0.841
NCI-H1734,0.669,0.75,0.631,0.608,0.656,0.417,0.47,0.405,0.482,0.491,0.762,0.802,0.616,0.713,0.852,0.454,0.415,0.446,0.443,0.463
NCI-H1755,0.914,0.872,0.883,0.948,0.829,0.303,0.4,0.306,0.442,0.444,0.694,0.761,0.472,0.69,0.747,0.434,0.439,0.825,0.454,0.445
NCI-H1793,0.861,–,1.1,1.01,0.87,0.281,0.384,–,0.228,0.354,–,0.677,–,0.638,0.678,0.691,–,0.802,0.798,0.629
NCI-H1915,0.251,0.267,0.267,0.252,0.261,0.913,0.915,0.873,0.93,0.95,0.452,0.489,0.469,0.442,0.468,0.586,0.515,0.46,0.562,0.553
NCI-H1944,0.433,0.409,0.398,0.356,0.427,0.3,0.336,0.294,0.356,0.363,0.479,0.571,0.461,0.512,0.561,0.652,0.778,0.751,0.734,0.58
NCI-H1975,0.858,0.773,0.748,1.02,0.78,0.284,0.266,0.259,0.253,0.244,0.723,0.644,0.748,0.767,0.653,0.278,0.289,0.297,0.299,0.255
NCI-H1993,1.22,1.01,1.08,1.08,1.14,0.834,0.774,0.854,0.851,0.66,1.06,0.69,–,0.642,0.814,0.631,0.588,0.672,0.346,0.482
NCI-H2009,0.662,0.678,0.612,0.804,0.65,0.718,0.653,0.647,0.671,0.749,0.823,0.694,0.88,0.671,0.727,1.1,1.05,1.01,1.08,1.05
NCI-H2023,0.454,0.639,0.49,0.44,0.479,0.203,0.202,0.143,0.205,0.196,0.631,0.514,0.572,0.553,0.543,0.22,0.232,0.246,0.208,0.204
NCI-H2085,0.777,0.763,0.747,0.768,0.742,0.356,0.425,0.426,0.438,0.449,0.693,0.755,0.65,0.769,0.771,0.925,0.818,0.846,0.83,0.885
NCI-H2087,0.587,0.633,0.563,0.646,0.476,0.934,0.707,0.903,0.809,0.836,0.695,0.453,0.565,–,0.869,0.668,0.637,0.693,0.716,0.556
NCI-H2126,0.972,0.945,0.89,0.898,0.762,0.487,0.483,0.449,0.511,0.531,0.709,0.726,0.594,0.509,0.73,0.69,0.741,0.704,0.49,0.733
NCI-H2170,0.705,0.652,0.634,0.693,0.652,0.348,0.28,0.274,0.359,0.275,0.825,0.747,0.627,0.785,0.608,0.28,0.362,0.278,0.264,0.258
NCI-H2228,0.738,0.575,0.596,0.869,0.504,0.423,0.36,0.248,0.45,0.284,0.592,0.408,0.77,0.583,0.449,0.37,0.345,0.387,0.362,0.362
NCI-H2347,0.652,0.607,0.628,0.562,0.603,0.0319,0.633,0.434,0.567,0.562,0.519,0.421,0.52,0.41,0.585,0.436,0.39,0.447,0.395,0.419
